From patent US10689354B2, “Aminoazole derivative” (Teijin Pharma Limited, priority 2015, dated 2020)

Experiments:
[1] = molecular target: T1, androgen receptor (AR-LBD) (Rattus norvegicus, UniProt P15207); experiment: Evaluation of androgen receptor affinity (PolarScreen Androgen Receptor Competitor Assay Kit, Red; fluorescence polarization); settings: 22° C. for 5 hours, relative to binding rate of 1 μM DHT, read-out: AR affinity (pEC50) (converted)
T1 construct: 5 μL of 2×AR-LBD/Fluoromone AL Red Complex contained in the kit; purchased Invitrogen
T1 sequence (P15207 651-882 limits assumed): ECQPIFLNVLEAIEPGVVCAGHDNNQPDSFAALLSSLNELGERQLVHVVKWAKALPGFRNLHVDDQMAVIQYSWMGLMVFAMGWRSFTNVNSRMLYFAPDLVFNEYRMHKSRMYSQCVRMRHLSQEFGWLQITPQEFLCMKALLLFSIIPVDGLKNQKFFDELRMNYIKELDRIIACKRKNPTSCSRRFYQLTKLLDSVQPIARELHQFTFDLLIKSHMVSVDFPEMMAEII
Procedure, shortened: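 Test compound and the 2× AR-LBD/Fluoromone AL Red complex were combined in duplicate wells. After reacting 5 h at 22° C, polarization was measured. pEC50 was derived by 4-parameter fitting, normalizing to binding obtained with 1 μM dihydrotestosterone.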

human androgen receptor = molecular target: T2, human androgen receptor (Homo sapiens, UniProt P10275); experiment: Reporter assay of an androgen receptor responsive sequence (luciferase, transiently transfected HEK293 cells); format: cell-based; settings: 24 hours incubation, relative to activity of 100 nM DHT, read-out: AR transcriptive activity (pEC50) (converted)
T2 construct: expressed in transfected cells; host or cells: HEK293
T2 sequence (P10275 1-920): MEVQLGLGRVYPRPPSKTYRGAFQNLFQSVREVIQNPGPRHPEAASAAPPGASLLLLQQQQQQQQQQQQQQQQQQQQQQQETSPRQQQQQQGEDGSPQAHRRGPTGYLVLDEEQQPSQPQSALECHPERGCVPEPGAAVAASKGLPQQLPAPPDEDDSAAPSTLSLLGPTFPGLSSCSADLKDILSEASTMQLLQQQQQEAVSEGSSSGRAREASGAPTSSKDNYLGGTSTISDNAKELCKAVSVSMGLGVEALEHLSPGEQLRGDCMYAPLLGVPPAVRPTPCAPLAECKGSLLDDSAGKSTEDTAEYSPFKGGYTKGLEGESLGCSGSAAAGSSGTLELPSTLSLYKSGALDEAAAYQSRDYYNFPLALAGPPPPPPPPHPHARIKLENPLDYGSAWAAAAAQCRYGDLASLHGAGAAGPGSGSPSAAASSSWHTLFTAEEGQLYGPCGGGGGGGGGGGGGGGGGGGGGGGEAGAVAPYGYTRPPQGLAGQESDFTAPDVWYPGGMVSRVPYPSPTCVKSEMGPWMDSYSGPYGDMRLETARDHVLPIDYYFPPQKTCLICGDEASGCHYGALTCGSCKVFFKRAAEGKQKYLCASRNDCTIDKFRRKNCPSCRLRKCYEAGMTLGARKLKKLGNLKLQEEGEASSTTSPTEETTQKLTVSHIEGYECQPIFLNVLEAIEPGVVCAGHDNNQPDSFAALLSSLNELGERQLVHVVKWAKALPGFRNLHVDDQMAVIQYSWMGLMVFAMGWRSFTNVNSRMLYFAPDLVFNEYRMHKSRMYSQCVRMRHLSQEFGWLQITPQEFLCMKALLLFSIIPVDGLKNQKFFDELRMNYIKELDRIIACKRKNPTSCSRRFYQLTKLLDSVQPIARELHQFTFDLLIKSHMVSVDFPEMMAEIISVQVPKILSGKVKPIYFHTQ
Procedure, shortened: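 Agonism scored as pEC50, fitted by 4-parameter curve against the response to 100 nM DHT, from dual-luciferase readout after 24 h compound treatment. Cells were HEK293 co-transfected (3 h) with human AR expression vector, androgen-responsive firefly reporter and Renilla control, in charcoal-stripped serum.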

Row | SMILES | EC50 [1] | EC50 (human androgen receptor)
1 | Cc1sc(N(CCC2CCCCC2)Cc2ccc(Cl)cc2)nc1C(=O)NS(=O)(=O)Cc1cccnc1 [Compound 325, 2-[(4-chlorophenyl)methyl-(2-cyclohexylethyl)amino]-5-methyl-N-(3-pyridylmethylsulfonyl)thiazole-4-carboxamide] | 0.0316 µM | 0.398 µM
2 | Cc1nc(CN(CCc2ccc(OC(F)F)cc2)c2nc(C(=O)NS(C)(=O)=O)c(C)s2)cs1 [Compound 513, 2-[2-[4-(difluoromethoxy)phenyl]ethyl-[(2-methylthiazol-4-yl)methyl]amino]-5-methyl-N-methylsulfonyl-thiazole-4-carboxamide] | 0.2 µM | 1.58 µM
3 | COCCCS(=O)(=O)NC(=O)c1nc(N(Cc2ncc(Br)cc2F)c2ccc(C#N)cc2)sc1C [Compound 535, 2-[N-[(5-bromo-3-fluoro-2-pyridyl)methyl]-4-cyano-anilino]-N-(3-methoxypropylsulfonyl)-5-methyl-thiazole-4-carboxamide] | 0.126 µM | 0.316 µM
4 | Cc1sc(N(Cc2ccc(OC(F)F)cc2F)c2ccc(C#N)cc2)nc1C(=O)NS(C)(=O)=O [Compound 522, 2-[4-cyano-N-[[4-(difluoromethoxy)-2-fluoro-phenyl]methyl]anilino]-5-methyl-N-methylsulfonyl-thiazole-4-carboxamide] | 0.0251 µM | 0.251 µM
5 | Cc1sc(N(Cc2ccnc(C(F)(F)F)c2)c2ccc(C#N)cc2)nc1C(=O)NS(C)(=O)=O [Compound 538, 2-[4-cyano-N-[[2-(trifluoromethyl)-4-pyridyl]methyl]anilino]-5-methyl-N-methylsulfonyl-thiazole-4-carboxamide] | 0.398 µM | 3.98 µM
6 | Cc1sc(N(CCc2ccc(Cl)cc2)Cc2ccc(OC(F)(F)F)cc2)nc1C(=O)NS(=O)(=O)C1CC1 [Compound 702, 2-[2-(4-chlorophenyl)ethyl-[[4-(trifluoromethoxy)phenyl]methyl]amino]-N-cyclopropylsulfonyl-5-methyl-thiazole-4-carboxamide] | 0.2 µM | > 10 µM
7 | CS(=O)(=O)NC(=O)c1nc(N(Cc2ccccc2)c2ccc(C#N)cc2)sc1C(F)F [Example 284, 2-(N-benzyl-4-cyano-anilino)-5-(difluoromethyl)-N-methylsulfonyl-thiazole-4-carboxamide] | 0.126 µM | > 10 µM
8 | Cc1sc(N(Cc2cccc(OC(F)(F)F)c2)c2ccc(C#N)cc2)nc1C(=O)NS(C)(=O)=O [Compound 343, 2-[4-cyano-N-[[3-(trifluoromethoxy)phenyl]methyl]anilino]-5-methyl-N-methylsulfonyl-thiazole-4-carboxamide] | 0.0316 µM | 0.1 µM
9 | Cc1oc(N(Cc2cccc(OC(F)(F)F)c2)c2ccc(C#N)cc2)nc1C(=O)NS(C)(=O)=O [Compound 613, 2-[4-cyano-N-[[3-(trifluoromethoxy)phenyl]methyl]anilino]-5-methyl-N-methylsulfonyl-oxazole-4-carboxamide] | 0.0251 µM | > 10 µM
10 | Cc1sc(N(Cc2ccc(-c3ccc(F)cc3)cn2)c2ccc(C#N)cc2)nc1C(=O)NS(C)(=O)=O [Compound 595, 2-[4-cyano-N-[[5-(4-fluorophenyl)-2-pyridyl]methyl]anilino]-5-methyl-N-methylsulfonyl-thiazole-4-carboxamide] | 0.1 µM | 1.26 µM
11 | Cc1oc(N(CCc2ccc(OC(F)(F)F)cc2)Cc2ccc(Cl)cn2)nc1C(=O)NS(C)(=O)=O [Compound 561, 2-[(5-chloro-2-pyridyl)methyl-[2-[4-(trifluoromethoxy)phenyl]ethyl]amino]-5-methyl-N-methylsulfonyl-oxazole-4-carboxamide] | 0.0398 µM | 3.16 µM
12 | Cc1sc(N(CCC2CCCC2)Cc2ccccc2)nc1C(=O)NS(C)(=O)=O [Compound 683, 2-[benzyl(2-cyclopentylethyl)amino]-5-methyl-N-methylsulfonyl-thiazole-4-carboxamide] | 0.1 µM | > 10 µM
13 | CS(=O)(=O)NC(=O)c1nc(N(Cc2ccc(F)cc2)c2ccc(C#N)cc2)sc1Cl [Example 262, 5-chloro-2-[4-cyano-N-[(4-fluorophenyl)methyl]anilino]-N-methylsulfonyl-thiazole-4-carboxamide] | 0.0501 µM | 0.0398 µM
14 | Cc1sc(N(CCc2ccc(Cl)cc2)Cc2ccc(OC(F)(F)F)cc2)nc1C(=O)NS(=O)(=O)C(F)(F)F [Compound 704, 2-[2-(4-chlorophenyl)ethyl-[[4-(trifluoromethoxy)phenyl]methyl]amino]-5-methyl-N-(trifluoromethylsulfonyl)thiazole-4-carboxamide] | 0.316 µM | > 10 µM
15 | Cc1sc(N(Cc2ccccc2)c2ccc(C#N)cc2F)nc1C(=O)NS(C)(=O)=O [Compound 487, 2-(N-benzyl-4-cyano-2-fluoro-anilino)-5-methyl-N-methylsulfonyl-thiazole-4-carboxamide] | 0.0794 µM | 0.158 µM
16 | Cc1sc(N(CCc2cccc(C(F)(F)F)c2)Cc2ccccc2)nc1C(=O)NS(C)(=O)=O [Compound 330, 2-[benzyl-[2-[3-(trifluoromethyl)phenyl]ethyl]amino]-5-methyl-N-methylsulfonyl-thiazole-4-carboxamide] | 0.251 µM | > 10 µM
17 | Cc1oc(N(Cc2ccc(OC(F)(F)F)cc2)c2ccc(C#N)cc2)nc1C(=O)NS(C)(=O)=O [Compound 607, 2-[4-cyano-N-[[4-(trifluoromethoxy)phenyl]methyl]anilino]-5-methyl-N-methylsulfonyl-oxazole-4-carboxamide] | 0.0398 µM | 5.01 µM

Second part, the molecule after the results:

Row | EC50 [1] | EC50 (human androgen receptor) | SMILES
18 | 0.126 µM | 1.26 µM | Cc1sc(N(CC2COc3ccccc3C2)c2ccc(C#N)cc2)nc1C(=O)NS(C)(=O)=O (stereo not drawn) [Compound 510, 2-[N-(chroman-3-ylmethyl)-4-cyano-anilino]-5-methyl-N-methylsulfonyl-thiazole-4-carboxamide]
19 | 0.126 µM | 0.316 µM | COc1ccc(F)cc1CN(c1ccc(C#N)cc1)c1nc(C(=O)NS(C)(=O)=O)c(C)s1 [Compound 105, 2-[4-cyano-N-[(5-fluoro-2-methoxy-phenyl)methyl]anilino]-5-methyl-N-methylsulfonyl-thiazole-4-carboxamide]
20 | 0.1 µM | 6.31 µM | COc1ccccc1CCN(c1ccc(C#N)cc1)c1nc(C(=O)NS(C)(=O)=O)c(C)s1 [Compound 376, 2-[4-cyano-N-[2-(2-methoxyphenyl)ethyl]anilino]-5-methyl-N-methylsulfonyl-thiazole-4-carboxamide]
21 | 0.0794 µM | 1 µM | Cc1sc(N(CC2CCC3(CC2)CC3)c2ccc(C#N)cc2)nc1C(=O)NS(C)(=O)=O [Compound 489, 2-[4-cyano-N-(spiro[2.5]octan-6-ylmethyl)anilino]-5-methyl-N-methylsulfonyl-thiazole-4-carboxamide]
22 | 0.251 µM | 0.251 µM | Cc1sc(N(CC[C@@H]2CCCC[C@@H]2O)c2ccc(C#N)cc2)nc1C(=O)NS(C)(=O)=O (racemic) [Compound 409, 2-[4-cyano-N-[2-[cis-2-hydroxycyclohexyl]ethyl]anilino]-5-methyl-N-methylsulfonyl-thiazole-4-carboxamide]
23 | 0.158 µM | > 10 µM | Cc1sc(N(CC2CCCC2)c2ccc(C#N)cc2)nc1C(=O)NS(C)(=O)=O [Compound 19, 2-[4-cyano-N-(cyclopentylmethyl)anilino]-5-methyl-N-methylsulfonyl-thiazole-4-carboxamide]
24 | 0.0316 µM | 0.0251 µM | Cc1sc(N(Cc2ccc(Br)c(F)c2)c2ccc(C#N)cc2)nc1C(=O)NS(C)(=O)=O [Example 181, 2-[N-[(4-bromo-3-fluoro-phenyl)methyl]-4-cyano-anilino]-5-methyl-N-methylsulfonyl-thiazole-4-carboxamide]
